Experimental data as given in patent US9868720B2 (Genentech, Inc., priority 2013, dated 2018).

The compounds below were run against DLK kinase (N-terminally GST-tagged DLK, catalytic domain amino acid 1-520) (Homo sapiens (Human), UniProt Q12852) (assay: DLK TR-FRET assay). Settings: 30 μM ATP, MKK4 K131M substrate, read-out: DLK HTRF (Ki).
Assay type: biochemical
Description: DLK TR-FRET assay: DLK kinase reactions (20 μL) containing 5 nM N-terminally GST-tagged DLK (catalytic domain amino acid 1-520) (Carna Bioscience), 40 nM N-terminally HIS-tagged MKK4 K131M substrate, and 30 μM ATP in kinase reaction buffer (50 mM HEPES, pH 7.5, 0.01% Triton X-100, 0.01% Bovine γ-Globulins, 2 mM DTT, 10 mM MgCl2 and 1 mM EGTA), and testing compound 1:3 serial diluted starting at 20 uM were incubated at ambient temperature for 60 minutes in 384 well OptiPlate (Perkin Elmer). To quench kinase reactions and detect phosphorylated MKK4, 15 μL of TR-FRET antibody mixture containing 2 nM anti-phosphorylated MKK4 labeled with Europium cryptate (Cisbio) and 23 nM anti-HIS labeled with D2 (Cisbio) in detection buffer (25 mM Tris pH 7.5, 100 mM NaCl, 100 mM EDTA, 0.01% Tween-20, and 200 mM KF) was added to the reaction mixture. The detection mixture was incubated for 3 hours at ambient temperature and the TR-FRET was detected with an EnVision multilabel plate reader (Perkin-Elmer) using the LANCE/DELFIA Dual Enh label from Perkin-Elmer (excitation filter: UV2 (TRF) 320 and emission filters: APC 665 and Europium 615).

Chain of DLK kinase (N-terminally GST-tagged DLK, catalytic domain amino acid 1-520) (Q12852 1-520): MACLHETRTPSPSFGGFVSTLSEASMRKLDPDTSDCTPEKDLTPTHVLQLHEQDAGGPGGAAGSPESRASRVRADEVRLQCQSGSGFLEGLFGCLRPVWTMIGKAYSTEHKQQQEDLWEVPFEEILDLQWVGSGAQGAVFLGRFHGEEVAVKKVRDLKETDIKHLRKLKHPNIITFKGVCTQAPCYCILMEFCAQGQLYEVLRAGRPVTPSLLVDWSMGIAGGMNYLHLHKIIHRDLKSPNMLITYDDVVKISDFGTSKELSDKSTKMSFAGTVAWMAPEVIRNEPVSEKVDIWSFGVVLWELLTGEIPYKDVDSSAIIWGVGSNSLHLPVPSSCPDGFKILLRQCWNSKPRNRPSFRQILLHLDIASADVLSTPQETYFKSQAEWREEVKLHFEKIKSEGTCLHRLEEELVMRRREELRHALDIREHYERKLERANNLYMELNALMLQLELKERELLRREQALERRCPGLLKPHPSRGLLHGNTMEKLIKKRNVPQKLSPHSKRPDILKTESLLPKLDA

Ki [µM] | SMILES
0.0475 | CC(C)Oc1nc(Nc2cc(C(F)(F)F)ccn2)cc(C2CCOCC2)n1 [Example 350, [2-Isopropoxy-6-(tetrahydro-pyran-4-yl)-pyrimidin-4-yl]-(4-trifluoromethyl-pyridin-2-yl)-amine]
0.0267 | CC(=O)N1CCC(c2cc(Nc3cc(C(F)(F)F)ccn3)nc(N3CC(F)C(F)C3)n2)CC1 (stereo not shown) [Example 250, 1-{4-[2-(3,4-Difluoro-pyrrolidin-1-yl)-6-(4-trifluoromethyl-pyridin-2-ylamino)-pyrimidin-4-yl]-piperidin-1-yl}-ethanone]
0.0475 | CC1CCCN1c1nc(Nc2cc(C(F)(F)F)ccn2)cc(C2CCNC(=O)C2)n1 (stereo not shown) [Example 412, 4-[2-(2-Methyl-pyrrolidin-1-yl)-6-(4-trifluoromethyl-pyridin-2-ylamino)-pyrimidin-4-yl]-piperidin-2-one]
0.288 | FC(F)(F)c1ccnc(Nc2cc(C3CCOCC3)nc(N3CC4(COC4)C3)n2)c1 [Example 218, [2-(2-Oxa-6-aza-spiro-[3.3]hept-6-yl)-6-(tetrahydro-pyran-4-yl)-pyrimidin-4-yl]-(4-trifluoromethyl-pyridin-2-yl)-amine]
0.0877 | FC(F)(F)c1ccnc(Nc2cc(C3CCOCC3)nc(N3CCn4ccnc4C3)n2)c1 [Example 253, [2-(5,6-Dihydro-8H-imidazo[1,2-a]pyrazin-7-yl)-6-(tetrahydro-pyran-4-yl)-pyrimidin-4-yl]-(4-trifluoromethyl-pyridin-2-yl)-amine]
0.00017 | COc1cc(C)ccc1C(=O)N1CCCC(c2cc(Nc3cc(C)ccn3)nc(N3CCCC3C)n2)C1 (stereo not shown) [Example 425, (2-Methoxy-4-methyl-phenyl)-{3-[6-(4-methyl-pyridin-2-ylamino)-2-(2-methyl-pyrrolidin-1-yl)-pyrimidin-4-yl]-piperidin-1-yl}-methanone]
0.00085 | C[C@@H]1CCCN1c1nc(Nc2cc(C(F)(F)F)ccn2)cc(C2CCNCC2)n1 [Example 111, [2-((R)-2-Methyl-pyrrolidin-1-yl)-6-piperidin-4-yl-pyrimidin-4-yl]-(4-trifluoromethyl-pyridin-2-yl)-amine]
0.0433 | CC(=O)N1CCC(c2cc(Nc3cc(C(F)(F)F)ccn3)nc(N3CCC(C(F)(F)F)C3)n2)CC1 (stereo not shown) [Example 206, 1-{4-[6-(4-Trifluoromethyl-pyridin-2-ylamino)-2-(3-trifluoromethyl-pyrrolidin-1-yl)-pyrimidin-4-yl]-piperidin-1-yl}-ethanone]
0.00803 | CC1CCCN1c1nc(Nc2cc(C(F)(F)F)ccn2)cc(C2CCN(C(=O)CC#N)CC2)n1 (stereo not shown) [Example 177, 3-{4-[2-(2-Methyl-pyrrolidin-1-yl)-6-(4-trifluoromethyl-pyridin-2-ylamino)-pyrimidin-4-3yl]-piperidin-1-yl}-3-oxo-propionitrile]
0.104 | O=C(C(F)F)N1CCC(c2cc(Nc3cc(C(F)(F)F)ccn3)nc(N3CC4CCC(C3)O4)n2)CC1 [Example 294, 2,2-Difluoro-1{-[2(8-oxa-3-aza-bicyclo[3.2.1]oct-3-yl)-6-(4-trifluoro-methyl-pyridin-2-ylamino)-pyrimidin-4-yl]-piperidin-1-yl}-ethanone]
0.0269 | CC(=O)N1CCC(C#N)(c2cc(Nc3cc(C(F)(F)F)ccn3)nc(N3CCC(F)(F)C3)n2)CC1 [Example 156, 1-Acetyl-4-[2-(3,3-difluoro-pyrrolidin-1-yl)-6-(4-trifluoromethyl-pyridin-2-ylamino)-pyrimidin-4-yl]-piperidine-4-carbonitrile]
0.0032 | FC1(F)CCN(c2nc(Nc3cc(-c4cccs4)ccn3)cc(C3CCNCC3)n2)C1 [Example 201, [2-(3,3-Difluoro-pyrrolidin-1-yl)-6-piperidin-4-yl-pyrimidin-4-yl]-(4-thiophen-2-yl-pyridin-2-yl)-amine]
0.016 | FC1(F)CCN(c2nc(Nc3cc(Cl)ccn3)cc(C3CCN(C4COC4)CC3)n2)C1 [Example 427, N-(4-chloropyridin-2-yl)-2-(3,3-difluoropyrrolidin-1-yl)-6-(1-(oxetan-3-yl)piperidin-4-yl)pyrimidin-4-amine]
0.31 | Cc1ccnc(Nc2cc(C3CCCN(Cc4ccc5nccn5c4)C3)nc(C)n2)c1 (stereo not shown) [Example 49, [6-(1-Imidazo[1,2-a]pyridin-6-ylmethyl-piperidin-3-yl)-2-methyl-pyrimidin-4-yl]-(4-methyl-pyridin-2-yl)-amine]
0.05 | Cc1ccnc(Nc2cc(C3CCN(C(=O)c4ccccc4)CC3)nc(N3CCCC3)n2)c1 [Example 25, {4-[6-(4-Methyl-pyridin-2-ylamino)-2-pyrrolidin-1-yl-pyrimidin-4-yl]-piperidin-1-yl}-phenyl-methanone]
0.262 | CC(=O)N1CCCC(c2cc(Nc3cc(C)ccn3)nc(N3CCC3)n2)C1 (stereo not shown) [Example 87, 1-{3-[2-Azetidin-1-yl-6-(4-methyl-pyridin-2-ylamino)-pyrimidin-4-yl]-piperidin-1-yl}-ethanone]
0.000735 | CC1CCCN1c1nc(Nc2cc(C(F)(F)F)ccn2)cc(C2CCNCC2)n1 (stereo not shown) [Example 65, [2-(2-Methyl-pyrrolidin-1-yl)-6-piperidin-4-yl-pyrimidin-4-yl]-(4-tri-fluoromethyl-pyridin-2-yl)-amine]
0.0268 | O=C(C(F)F)N1CCCC(c2cc(Nc3cc(C(F)(F)F)ccn3)nc(N3CCC(F)(F)C3)n2)C1 (stereo not shown) [Example 178, 1-{3-[2-(3,3-Difluoro-pyrrolidin-1-yl)-6-(4-trifluoromethyl-pyridin-2-ylamino)-pyrimidin-4-yl]-piperidin-1-yl}-2,2-difluoro-ethanone]
0.00521 | Cn1cc(-c2nc(Nc3cc(C(F)(F)F)ccn3)cc(C3CCN(CC4CCOCC4)C3)n2)cn1 (stereo not shown) [Example 423, {2-(1-Methyl-1H-pyrazol-4-yl)-6-[1-(tetrahydro-pyran-4-ylmethyl)-pyrrolidin-3-yl]-pyrimidin-4-yl}-(4-trifluoromethyl-pyridin-2-yl)-amine]
0.0117 | N#CC1(c2cc(Nc3cc(C(F)(F)F)ccn3)nc(N3CCC(F)(F)C3)n2)CCNCC1 [Example 105, 4-[2-(3,3-Difluoro-pyr-rolidin-1-yl)-6-(4-trifluoro-methyl-pyridin-2-ylamino)-pyrimidin-4-yl]-piperidine-4-carbonitrile]
0.174 | FC(F)(F)c1ccnc(Nc2cc(C3CCOCC3)nc(N3CC4CCC(C3)O4)n2)c1 [Example 296, [2-(8-Oxa-3-aza-bicyclo-[3.2.1]oct-3-yl)-6-(tetra-hydro-pyran-4-yl)-pyrimidin-4-yl]-(4-trifluoro-methyl-pyridin-2-yl)-amine]
0.0184 | C[C@@H]1CCCN1c1nc(Nc2cc(C(F)(F)F)ccn2)cc(-c2ccc(=O)n(C)c2)n1 [Example 331, 1-Methyl-5-[2-((R)-2-methyl-pyrrolidin-1-yl)-6-(4-trifluoromethyl-pyridin-2-ylamino)-pyrimidin-4-yl]-1H-pyridin-2-one]
0.173 | O=C(C(F)F)N1CCC(c2cc(Nc3cc(C(F)(F)F)ccn3)nc(N3CC4CCC(C3)O4)n2)C1 (stereo not shown) [Example 373, 2,2-Difluoro-1-{3-[2-(8-oxa-3-aza-bicyclo[3.2. 1]oct-3-yl)-6-(4-trifluoro-methyl-pyridin-2-ylamino)-pyrimidin-4-yl]-pyrrolidin-1-yl}-ethanone]
0.0436 | Cc1nc(Nc2cc(C(F)(F)F)ccn2)cc(C2CCCN(C(=O)c3ccc(F)cc3)C2)n1 (stereo not shown) [Example 22, (4-Fluoro-phenyl)-{3-[2-methyl-6-(4-trifluoro-methyl-pyridin-2-ylamino)-pyrimidin-4-yl]-piperidin-1-yl}-methanone]
0.00159 | CC1CCCN1c1nc(Nc2cc(C(F)(F)F)ccn2)cc(C2CCN(C(=O)Cn3ccnc3)C2)n1 (stereo not shown) [Example 402, 2-Imidazol-1-yl-1-{3-[2-(2-methyl-pyrrolidin-1-yl)-6-(4-trifluoromethyl-pyridin-2-ylamino)-pyrimidin-4-yl]-pyrrolidin-1-yl}-ethanone]
0.00875 | Cn1nccc1-c1nc(Nc2cc(C(F)(F)F)ccn2)cc(C2CCN(CC3CCOCC3)C2)n1 (stereo not shown) [Example 388, {2-(2-Methyl-2H-pyrazol-3-yl)-6-[1-(tetrahydro-pyran-4-ylmethyl)-pyrrolidin-3-yl]-pyrimidin-4-yl]-(4-trifluoromethyl-pyridin-2-yl)-amine]
0.12 | O=C1CC(c2cc(Nc3cc(C(F)(F)F)ccn3)nc(C3CCOC3)n2)CCN1 (stereo not shown) [Example 392, 4-[2-(Tetrahydro-furan-3-yl)-6-(4-trifluoromethyl-pyridin-2-ylamino)-pyrimidin-4-yl]-piperidin-2-one]
0.195 | CCc1ccnc(Nc2cc(C3CCCN(C(=O)c4ccccc4)C3)nc(C)n2)c1 (stereo not shown)
0.141 | CC(C)c1nc(Nc2cc(C(F)(F)F)ccn2)cc(C2CCCN(C)C2)n1 (stereo not shown) [Example 145, [2-Isopropyl-6-(1-methyl-piperidin-3-yl)-pyrimidin-4-yl]-(4-trifluoro-methyl-pyridin-2-yl)-amine]
0.0031 | FC1(F)CCCN(c2nc(Nc3cc(C(F)(F)F)ccn3)cc(C3CCNC3)n2)C1 (stereo not shown) [Example 96, [2-(3,3-Difluoro-piperidin-1-yl)-6-pyrrolidin-3-yl-pyrimidin-4-yl]-(4-tri-fluoromethyl-pyridin-2-yl)-amine]

SMILES | Ki [µM]
FC(F)(F)c1ccnc(Nc2cc(C3CCOCC3)nc(N3C4CCC3COC4)n2)c1 [Example 251, [2-(3-Oxa-8-aza-bicyclo-[3.2.1]oct-8-yl)-6-(tetrahydro-pyran-4-yl)-pyrimidin-4-yl]-(4-trifluoro-methyl-pyridin-2-yl)-amine] | 0.183
